Assay results taken from patent US20260060987A1, “METHODS AND COMPOSITIONS FOR RADIOPROTECTION AND MITIGATION OF RADIATION-INDUCED INJURY USING KINASE INHIBITORS” (Incyte Corporation, priority 2024, published 2026).

Biological target: PI3Kδ (Homo sapiens, UniProt O00329)
Test: PI3Kδ inhibition, IC50 at 1 mM ATP
Type: biochemical

Sequence of PI3Kδ (O00329 whole entry): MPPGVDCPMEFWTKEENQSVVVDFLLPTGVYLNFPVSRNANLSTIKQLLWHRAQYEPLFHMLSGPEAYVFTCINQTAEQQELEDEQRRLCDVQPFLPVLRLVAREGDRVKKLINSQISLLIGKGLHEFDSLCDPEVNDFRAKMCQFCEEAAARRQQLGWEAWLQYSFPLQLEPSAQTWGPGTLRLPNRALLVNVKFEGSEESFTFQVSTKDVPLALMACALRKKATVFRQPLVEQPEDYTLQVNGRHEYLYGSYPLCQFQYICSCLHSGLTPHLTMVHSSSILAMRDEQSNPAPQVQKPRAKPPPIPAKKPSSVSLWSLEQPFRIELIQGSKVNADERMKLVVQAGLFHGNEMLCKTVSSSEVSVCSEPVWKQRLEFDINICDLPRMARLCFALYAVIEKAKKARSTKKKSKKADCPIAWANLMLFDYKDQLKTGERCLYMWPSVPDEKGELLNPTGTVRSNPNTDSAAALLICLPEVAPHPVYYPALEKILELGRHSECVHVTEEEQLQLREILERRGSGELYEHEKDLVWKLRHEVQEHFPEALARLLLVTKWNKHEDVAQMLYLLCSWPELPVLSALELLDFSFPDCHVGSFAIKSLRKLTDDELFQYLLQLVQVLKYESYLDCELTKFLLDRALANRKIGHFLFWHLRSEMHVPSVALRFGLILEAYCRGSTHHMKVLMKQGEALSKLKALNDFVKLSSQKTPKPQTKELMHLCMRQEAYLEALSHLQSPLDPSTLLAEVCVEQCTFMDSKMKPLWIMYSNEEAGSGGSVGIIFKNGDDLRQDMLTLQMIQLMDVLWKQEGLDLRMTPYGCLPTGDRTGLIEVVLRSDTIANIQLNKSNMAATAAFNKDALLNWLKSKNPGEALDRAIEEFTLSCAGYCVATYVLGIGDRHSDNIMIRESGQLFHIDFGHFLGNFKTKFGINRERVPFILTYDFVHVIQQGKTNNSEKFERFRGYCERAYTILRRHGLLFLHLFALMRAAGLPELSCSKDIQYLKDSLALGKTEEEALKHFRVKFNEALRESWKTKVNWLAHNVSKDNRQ
Sequence of PI3Kδ (P27986 whole entry partner): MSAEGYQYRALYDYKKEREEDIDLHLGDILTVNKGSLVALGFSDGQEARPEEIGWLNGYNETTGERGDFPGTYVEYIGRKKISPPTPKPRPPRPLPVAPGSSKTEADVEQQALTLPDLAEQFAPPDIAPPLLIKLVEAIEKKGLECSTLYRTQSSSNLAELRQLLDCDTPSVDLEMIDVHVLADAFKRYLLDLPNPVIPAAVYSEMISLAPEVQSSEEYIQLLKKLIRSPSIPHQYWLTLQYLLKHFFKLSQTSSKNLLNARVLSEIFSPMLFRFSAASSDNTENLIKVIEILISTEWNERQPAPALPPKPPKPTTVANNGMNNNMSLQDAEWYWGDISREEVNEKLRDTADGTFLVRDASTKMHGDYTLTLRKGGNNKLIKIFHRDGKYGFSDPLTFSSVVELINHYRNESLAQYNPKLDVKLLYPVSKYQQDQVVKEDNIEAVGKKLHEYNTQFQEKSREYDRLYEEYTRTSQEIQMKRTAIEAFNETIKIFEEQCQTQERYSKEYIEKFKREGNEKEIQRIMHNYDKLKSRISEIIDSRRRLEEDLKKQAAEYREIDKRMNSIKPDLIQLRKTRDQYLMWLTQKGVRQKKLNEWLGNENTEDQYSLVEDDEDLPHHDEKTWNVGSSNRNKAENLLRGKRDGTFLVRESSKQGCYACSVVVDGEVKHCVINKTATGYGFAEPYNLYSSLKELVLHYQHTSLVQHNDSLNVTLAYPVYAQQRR

Work on CCOc1c([C@H](C)n2nc(C)c3c(N)ncnc32)cc(Cl)c(F)c1[C@@H]1CNC(=O)C1 [parsaclisib, (R)-4-(3-((S)-1-(4-amino-3-methyl-1H-pyrazolo[3,4-d]pyrimidin-1-yl)ethyl)-5-chloro-2-ethoxy-6-fluorophenyl) pyrrolidin-2-one] yielded an IC50 of 1 nM.
